Results taken from PMC6309603 (Molecular diversity, 2018).

Tests used:
[1] = target: T1, AChE (Homo sapiens, UniProt P22303); test: Kinetic study of AChE inhibition; type: biochemical
[2] = target: BChE (Homo sapiens, UniProt P06276); test: biochemical
[3] = target: T1, AChE; test: biochemical

T1 sequence (P22303 32-614): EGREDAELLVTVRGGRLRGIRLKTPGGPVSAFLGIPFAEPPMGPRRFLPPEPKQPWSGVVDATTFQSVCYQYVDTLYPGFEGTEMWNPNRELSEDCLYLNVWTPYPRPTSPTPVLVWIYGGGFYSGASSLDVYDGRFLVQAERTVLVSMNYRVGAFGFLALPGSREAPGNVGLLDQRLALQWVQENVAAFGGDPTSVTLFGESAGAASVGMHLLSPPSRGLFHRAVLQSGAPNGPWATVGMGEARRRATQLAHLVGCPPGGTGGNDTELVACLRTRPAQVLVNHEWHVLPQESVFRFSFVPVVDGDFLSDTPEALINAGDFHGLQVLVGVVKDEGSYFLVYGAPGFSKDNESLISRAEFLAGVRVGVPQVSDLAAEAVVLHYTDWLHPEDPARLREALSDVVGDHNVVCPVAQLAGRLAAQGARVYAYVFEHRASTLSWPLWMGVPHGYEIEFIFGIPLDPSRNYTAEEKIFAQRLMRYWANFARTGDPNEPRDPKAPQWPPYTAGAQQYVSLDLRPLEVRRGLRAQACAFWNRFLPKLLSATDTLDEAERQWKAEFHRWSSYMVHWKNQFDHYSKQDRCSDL
BChE, sequence (P06276 29-602): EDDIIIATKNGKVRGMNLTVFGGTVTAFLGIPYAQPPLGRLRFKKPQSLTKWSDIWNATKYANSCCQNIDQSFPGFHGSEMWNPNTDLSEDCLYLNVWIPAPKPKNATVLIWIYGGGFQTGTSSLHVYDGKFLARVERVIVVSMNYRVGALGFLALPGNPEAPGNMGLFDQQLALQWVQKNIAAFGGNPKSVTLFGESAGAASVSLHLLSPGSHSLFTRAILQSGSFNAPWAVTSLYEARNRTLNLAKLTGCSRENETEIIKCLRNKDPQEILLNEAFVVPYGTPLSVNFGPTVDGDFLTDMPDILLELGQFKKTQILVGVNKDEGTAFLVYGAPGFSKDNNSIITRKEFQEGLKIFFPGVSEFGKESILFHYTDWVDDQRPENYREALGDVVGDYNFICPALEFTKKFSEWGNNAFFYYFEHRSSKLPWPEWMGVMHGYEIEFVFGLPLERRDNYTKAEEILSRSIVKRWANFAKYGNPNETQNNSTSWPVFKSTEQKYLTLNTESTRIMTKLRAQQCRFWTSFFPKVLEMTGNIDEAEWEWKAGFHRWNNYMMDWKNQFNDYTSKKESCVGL

In the case of O=C(/C=C/c1ccc(OCCN2CCCC2)cc1)c1cc2ccccc2oc1=O [Compound 5e, (E)-3-(3-(4-(2-(pyrrolidin-1-yl)ethoxy)phenyl)acryloyl)-2H-chromen-2-one], the Ki [1] is reported as 110 nM, the “non-competitive constant (Ki′)” value ([1]; AChE, substrate acetylthiocholine iodide, pH 7.4, 30 °C) is reported as 190 nM and the “inhibition mechanism against AChE” value ([1]; Lineweaver-Burk analysis) is reported as “mixed-type inhibition”. For the same molecule, the IC50 [2] was 4110 ± 160 nM, the IC50 [3] was 150 ± 10 nM and the “inhibitory activity against AChE (in words)” value [3] was “potent inhibitory activity”. For the same molecule, the “selectivity over BChE (in words)” value [3] was “high selectivity” and the “Selectivity for AChE” value ([3]; IC50 (BChE)/IC50 (AChE)) was 27.40.
